In the experiment the test system is listeria bacteria, in particular Listeria monocytogenes. Kind of experiment: Invasion and infection of mammal cells by listeria bacteria. Format: cell-based. To be noted: no method or numbers given.

Entries after “also recorded” stand apart in the source; their conditions may differ.

On to lacto-N-fucopentaose I [LNFP I], for which the “inhibitory action against listeria bacteria (invasion and infection of mammal cells)” value is recorded as “particularly strong inhibitory effect; also recorded: strong, yet dose-dependant inhibitory action”.
Next, `CC(=O)N[C@H]1[C@H](O[C@H]2[C@@H](O)[C@@H](CO)O[C@@H](O[C@@H]([C@H](O)[C@@H](O)C=O)[C@H](O)CO)[C@@H]2O)O[C@H](CO)[C@@H](O[C@@H]2O[C@@H](C)[C@@H](O)[C@@H](O)[C@@H]2O)[C@@H]1O[C@@H]1O[C@H](CO)[C@H](O)[C@H](O)[C@H]1O` [LNFP II]: “did not shown any such action”; LNFP III: “did not shown any such action”.

These data come from US20050004070A1, “Anti-infectious carbohydrates” (priority 2001, published 2005).
